Source: PMC7180134 (Angewandte Chemie (International ed. in English), 2020)

Biological target: T1, human NTH1 (hNTH1, endonuclease III-like protein 1) (Homo sapiens, UniProt P78549)
T1 sequence (P78549 23-304): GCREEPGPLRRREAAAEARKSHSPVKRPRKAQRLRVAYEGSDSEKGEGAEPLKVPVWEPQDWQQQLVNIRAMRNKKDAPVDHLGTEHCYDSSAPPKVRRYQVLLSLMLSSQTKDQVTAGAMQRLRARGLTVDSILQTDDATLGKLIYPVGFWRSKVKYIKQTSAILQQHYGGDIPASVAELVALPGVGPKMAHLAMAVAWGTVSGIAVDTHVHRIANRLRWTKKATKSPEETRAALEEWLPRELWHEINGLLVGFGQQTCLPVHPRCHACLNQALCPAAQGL
Type: biochemical

- IC50: 780 nM
Compound: Nc1ncnc2c1c(-c1cccc(OCc3ccccc3)c1)cn2[C@H]1C[C@@H](CN2CCC2)C1 [NVP-AEW541]
